According to patent publication US20250051319A1 (AUGUSTINE THERAPEUTICS, priority 2021, published 2025):

Tests used:
[1] = target: catalytic domain 2 (CD2) of HDAC6 (Homo sapiens (Human), UniProt Q9UBN7); assay: Cellular target engagement assay - NanoBRET; assay type: cell-based; settings: NanoLuc-HDAC6(CD2) in HEK293T cells, 2 hours, read-out: IC50 (HDAC6(CD2) interaction)
[2] = target: human full-length recombinant HDAC6 (Homo sapiens (Human), UniProt Q9UBN7); assay: HDAC6 enzymatic activity assay (Reaction Biology Corporation, RHKKAc fluorogenic peptide); assay type: biochemical; settings: Reaction Biology Corporation protocol, RHKKAc fluorogenic peptide 10 μM; read-out: HDAC6 biochem
Procedure: (§1) Dose response testing of HDAC6 and HDAC 1 were run at Reaction Biology Corporation (RBC). Inhibition of HDAC enzymes was performed using N-terminal GST tagged human full-length recombinant HDAC6 (H88-30G, SignalChem) and C-terminal FLAG His tag human full-length recombinant HDAC1 produced in insect cells (KDA-21-365, RBC). Enzyme reactions were run in 50 mM Tris-HCl, pH8.0, 137 mM NaCl, 2.7 mM KCl, and 1 mM MgCl2 with 1 mg/ml BSA, 1% DMSO freshly added. 2× enzyme was delivered in the wells of the reaction plate except for the “no enzyme” control wells. In the latter, buffer was added. Compounds in 100% DMSO were delved into the enzyme mixture by acoustic technology (Echo550). Plates are spun down and compounds were incubation with the enzyme for 10 min at room temperature. 2× Fluorogenic peptide from p53 residues 379-382 (RHKKAc, 10 μM final concentration) was added in all wells to initiate the reaction, followed by 1 h incubation at 30° C. Developer containing Trichostatin A was added to stop the reaction and generate fluorescent color. A kinetic measurement was carried out for 20 min with 5 min interval on the Envision plate reader (Perkin Elmer, Ex/Em=360/460). End point reading i.e., plateau of the development reaction was used for analysis. Data was reported by RBC as percentage enzyme activity. Percentage inhibition was calculated by subtracting percentage enzyme activity from 100. IC50 values were calculated using GraphPad Prism 9 based on the log(inhibitor) vs. response—Variable slope (four parameters) equation.

[3] = target: human full-length recombinant HDAC1 (Homo sapiens (Human), UniProt Q13547); assay: HDAC1 enzymatic activity assay (Reaction Biology Corporation, RHKKAc fluorogenic peptide); assay type: biochemical; settings: Reaction Biology Corporation protocol, RHKKAc fluorogenic peptide 10 μM; read-out: HDAC1 biochem
Procedure: as §1

Chain of human full-length recombinant HDAC1 (Q13547 whole entry): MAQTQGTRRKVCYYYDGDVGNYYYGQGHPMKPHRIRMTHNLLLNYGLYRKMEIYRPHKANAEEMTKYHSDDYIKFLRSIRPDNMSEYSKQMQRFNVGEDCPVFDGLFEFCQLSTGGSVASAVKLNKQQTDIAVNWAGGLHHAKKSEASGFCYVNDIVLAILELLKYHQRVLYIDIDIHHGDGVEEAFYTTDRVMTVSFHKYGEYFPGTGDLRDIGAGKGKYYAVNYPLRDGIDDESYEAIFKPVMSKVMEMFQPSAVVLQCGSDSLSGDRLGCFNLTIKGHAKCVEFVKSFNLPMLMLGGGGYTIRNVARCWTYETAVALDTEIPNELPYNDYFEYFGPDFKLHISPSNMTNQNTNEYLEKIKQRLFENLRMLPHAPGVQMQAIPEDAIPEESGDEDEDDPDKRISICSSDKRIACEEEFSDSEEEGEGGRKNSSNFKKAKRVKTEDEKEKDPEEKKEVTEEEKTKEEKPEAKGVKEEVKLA
Chain of human full-length recombinant HDAC6 (Q9UBN7 whole entry): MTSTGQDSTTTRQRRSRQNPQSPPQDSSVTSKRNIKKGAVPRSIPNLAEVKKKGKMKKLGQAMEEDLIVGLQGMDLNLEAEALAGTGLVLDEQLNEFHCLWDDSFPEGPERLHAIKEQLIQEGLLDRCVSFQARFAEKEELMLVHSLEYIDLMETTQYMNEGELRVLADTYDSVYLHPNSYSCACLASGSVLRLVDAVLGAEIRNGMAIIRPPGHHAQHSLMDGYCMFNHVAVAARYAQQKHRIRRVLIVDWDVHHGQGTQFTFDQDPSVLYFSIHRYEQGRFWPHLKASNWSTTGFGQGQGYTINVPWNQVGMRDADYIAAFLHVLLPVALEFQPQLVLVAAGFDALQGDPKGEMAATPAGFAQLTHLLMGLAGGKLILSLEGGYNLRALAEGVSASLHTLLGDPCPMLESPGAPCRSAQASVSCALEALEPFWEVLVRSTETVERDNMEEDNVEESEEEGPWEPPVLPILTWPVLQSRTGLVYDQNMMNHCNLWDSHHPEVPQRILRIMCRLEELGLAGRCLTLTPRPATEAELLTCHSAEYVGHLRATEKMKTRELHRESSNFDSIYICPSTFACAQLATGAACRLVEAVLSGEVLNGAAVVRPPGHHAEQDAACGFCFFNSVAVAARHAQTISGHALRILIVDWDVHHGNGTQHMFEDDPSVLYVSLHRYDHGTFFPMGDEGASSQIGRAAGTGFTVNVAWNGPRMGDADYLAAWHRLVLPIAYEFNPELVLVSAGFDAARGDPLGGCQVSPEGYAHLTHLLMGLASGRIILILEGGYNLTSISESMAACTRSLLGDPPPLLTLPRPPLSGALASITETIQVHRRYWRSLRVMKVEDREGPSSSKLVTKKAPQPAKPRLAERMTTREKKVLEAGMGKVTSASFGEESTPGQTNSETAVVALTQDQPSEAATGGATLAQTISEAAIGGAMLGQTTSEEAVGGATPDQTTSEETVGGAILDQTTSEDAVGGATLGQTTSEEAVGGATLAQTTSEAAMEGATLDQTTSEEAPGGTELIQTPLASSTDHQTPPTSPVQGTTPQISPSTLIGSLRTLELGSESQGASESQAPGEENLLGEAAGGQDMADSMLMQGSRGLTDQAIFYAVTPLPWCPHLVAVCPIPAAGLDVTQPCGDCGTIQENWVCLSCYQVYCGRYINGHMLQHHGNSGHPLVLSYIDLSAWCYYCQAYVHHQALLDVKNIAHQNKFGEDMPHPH
Chain of catalytic domain 2 (CD2) of HDAC6 (Q9UBN7 482-800): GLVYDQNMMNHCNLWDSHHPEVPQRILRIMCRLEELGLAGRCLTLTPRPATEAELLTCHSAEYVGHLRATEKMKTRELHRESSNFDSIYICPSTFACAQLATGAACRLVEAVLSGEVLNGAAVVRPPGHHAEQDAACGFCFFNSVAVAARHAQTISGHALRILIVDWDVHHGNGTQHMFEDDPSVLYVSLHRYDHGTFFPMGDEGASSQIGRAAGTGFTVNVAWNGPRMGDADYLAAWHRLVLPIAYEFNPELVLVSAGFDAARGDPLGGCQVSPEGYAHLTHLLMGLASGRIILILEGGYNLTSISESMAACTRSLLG

| SMILES | IC50 [1] [nM] | IC50 [2] [nM] | IC50 [3] [nM] |
| --- | --- | --- | --- |
| Cc1nc(SCC(=O)c2ccc(CNC(=O)CO)s2)c2cccnc2n1 [Compound 64, 2-hydroxy-N-((5-(2-((2-methylpyrido[2,3-d]pyrimidin-4-yl)thio)acetyl)thiophen-2-yl)methyl)acetamide] | ≤ 100 | ≤ 100 | > 10000 |
| O=C(CO)NCc1ccc(C(=O)CSc2nc3cc(C(F)(F)F)ncc3o2)s1 [Compound 71, 2-hydroxy-N-((5-(2-((6-(trifluoromethyl)oxazolo[5,4-c]156yrrolid-2-yl)thio)acetyl)thiophen-2-yl)methyl)acetamide] | ≤ 100 | ≤ 100 | 1000 to 10000 |
| O=C(CO)NCc1ccc(C(=O)CSc2nc3nc(C(F)(F)F)ccc3o2)s1 [Compound 72, 2-hydroxy-N-((5-(2-((5-(trifluoromethyl)oxazolo[4,5-b]156yrrolid-2-yl)thio)acetyl)thiophen-2-yl)methyl)acetamide] | ≤ 100 | ≤ 100 | 500 to 1000 |
| Cc1nc(SCC(=O)c2ccc(CNC(=O)CO)s2)c2cc(Cl)c(F)cc2n1 [Compound 73, N-((5-(2-((6-chloro-7-fluoro-2-methylquinazolin-4-yl)thio)acetyl)thiophen-2-yl)methyl)-2-hydroxyacetamide] | ≤ 100 | ≤ 100 | > 10000 |
| Cn1ncc2c(SCC(=O)c3ccc(CNC(=O)CO)s3)nc(C(F)(F)F)nc21 [Compound 74, 2-hydroxy-N-((5-(2-((1-methyl-6-(trifluoromethyl)-1H-pyrazolo[3,4-d]pyrimidin-4-yl)thio)acetyl)thiophen-2-yl)methyl)acetamide] | ≤ 100 | ≤ 100 | > 10000 |
| Cc1nc(SCC(=O)c2ccc(CNC(=O)CO)s2)c2cc(C(F)(F)F)ccc2n1 [Compound 76, 2-hydroxy-N-((5-(2-((2-methyl-6-(trifluoromethyl)quinazolin-4-yl)thio)acetyl)thiophen-2-yl)methyl)acetamide] | ≤ 100 | ≤ 100 | > 10000 |
| O=C(CO)NCc1ccc(C(=O)CSc2nc(C(F)(F)F)nc3nn(C4CC4)cc23)s1 [Compound 79, N-((5-(2-((2-cyclopropyl-6-(trifluoromethyl)-2H-pyrazolo[3,4-d]pyrimidin-4-yl)thio)acetyl)thiophen-2-yl)methyl)-2-hydroxyacetamide] | ≤ 100 | ≤ 100 | > 10000 |
| Cc1nc(SCC(=O)c2ccc(CNC(=O)CO)s2)c2cc(N3CCN(C)CC3)ccc2n1 [Compound 85, 2-hydroxy-N-((5-(2-((2-methyl-6-(4-methylpiperazin-1-yl)quinazolin-4-yl)thio)acetyl)thiophen-2-yl)methyl)acetamide] | ≤ 100 | ≤ 100 | > 10000 |
| O=C(CO)NCc1ccc(C(=O)CSc2nc(C(F)(F)F)nc3ncccc23)s1 [Compound 113, 2-hydroxy-N-((5-(2-((2-(trifluoromethyl)pyrido[2,3-d]pyrimidin-4-yl)thio)acetyl)thiophen-2-yl)methyl)acetamide] | ≤ 100 | ≤ 100 | > 10000 |
| O=C(CSc1nc(C(F)(F)F)nc2ncccc12)c1ccc(CNC(=O)C2CC2(F)F)s1 (stereo not drawn) [Compound 114, 2,2-difluoro-N-((5-(2-((2-(trifluoromethyl)pyrido[2,3-d]pyrimidin-4-yl)thio)acetyl)thiophen-2-yl)methyl)cyclopropane-1-carboxamide] | ≤ 100 | ≤ 100 | > 10000 |
| O=C(CO)NCc1ccc(C(=O)CSc2nc3ccc(C(F)(F)F)nc3o2)s1 [Compound 117, 2-hydroxy-N-((5-(2-((5-(trifluoromethyl)oxazolo[5,4-b]157yrrolid-2-yl)thio)acetyl)thiophen-2-yl)methyl)acetamide] | ≤ 100 | ≤ 100 | > 10000 |
| O=C(CO)NCc1ccc(C(=O)CSc2nc3ncc(C(F)(F)F)cc3o2)s1 [Compound 118, 2-hydroxy-N-((5-(2-((6-(trifluoromethyl)oxazolo[4,5-b]157yrrolid-2-yl)thio)acetyl)thiophen-2-yl)methyl)acetamide] | ≤ 100 | ≤ 100 | 500 to 1000 |
| Cc1nc(SCC(=O)c2ccc(CNC(=O)CO)s2)c2cc(C(F)(F)F)cnc2n1 [Compound 119, 2-hydroxy-N-((5-(2-((2-methyl-6-(trifluoromethyl)pyrido[2,3-d]pyrimidin-4-yl)thio)acetyl)thiophen-2-yl)methyl)acetamide] | ≤ 100 | ≤ 100 | > 10000 |
| Cc1nc(SCC(=O)c2ccc(CNC(=O)CO)s2)c2cc(F)cnc2n1 [Compound 124, N-((5-(2-((6-fluoro-2-methylpyrido[2,3-d]pyrimidin-4-yl)thio)acetyl)thiophen-2-yl)methyl)-2-hydroxyacetamide] | ≤ 100 | ≤ 100 | > 10000 |
| COCCn1ncc2c(SCC(=O)c3ccc(CNC(=O)CO)s3)nc(C(F)(F)F)nc21 [Compound 125, 2-hydroxy-N-((5-(2-((1-(2-methoxyethyl)-6-(trifluoromethyl)-1H-pyrazolo[3,4-d]pyrimidin-4-yl)thio)acetyl)thiophen-2-yl)methyl)acetamide] | ≤ 100 | ≤ 100 | > 10000 |
| Cc1nc(SCC(=O)c2ccc(CNC(=O)CO)s2)c2cc(OC(F)(F)F)ccc2n1 [Compound 126, 2-hydroxy-N-((5-(2-((2-methyl-6-(trifluoromethoxy)quinazolin-4-yl)thio)acetyl)thiophen-2-yl)methyl)acetamide] | ≤ 100 | ≤ 100 | > 10000 |
| COCCn1cc2c(SCC(=O)c3ccc(CNC(=O)CO)s3)nc(C(F)(F)F)nc2n1 [Compound 132, 2-hydroxy-N-((5-(2-((2-(2-methoxyethyl)-6-(trifluoromethyl)-2H-pyrazolo[3,4-d]pyrimidin-4-yl)thio)acetyl)thiophen-2-yl)methyl)acetamide] | ≤ 100 | ≤ 100 | > 10000 |
| O=C(CO)NCc1ccc(C(=O)CSc2nc(C(F)(F)F)nc3c2cnn3C2CC2)s1 [Compound 133, N-((5-(2-((1-cyclopropyl-6-(trifluoromethyl)-1H-pyrazolo[3,4-d]pyrimidin-4-yl)thio)acetyl)thiophen-2-yl)methyl)-2-hydroxyacetamide] | ≤ 100 | ≤ 100 | > 10000 |
| CCn1cc2c(SCC(=O)c3ccc(CNC(=O)CO)s3)nc(C(F)(F)F)nc2n1 [Compound 135, N-((5-(2-((2-ethyl-6-(trifluoromethyl)-2H-pyrazolo[3,4-d]pyrimidin-4-yl)thio)acetyl)thiophen-2-yl)methyl)-2-hydroxyacetamide] | ≤ 100 | ≤ 100 | > 10000 |
| COc1cnc2nc(C)nc(SCC(=O)c3ccc(CNC(=O)CO)s3)c2c1 [Compound 140, 2-hydroxy-N-((5-(2-((6-methoxy-2-methylpyrido[2,3-d]pyrimidin-4-yl)thio)acetyl)thiophen-2-yl)methyl)acetamide] | ≤ 100 | ≤ 100 | > 10000 |
| Cc1nc(SCC(=O)c2ccc(CNC(=O)CO)s2)c2cc(Cl)cc(F)c2n1 [Compound 142, N-((5-(2-((6-chloro-8-fluoro-2-methylquinazolin-4-yl)thio)acetyl)thiophen-2-yl)methyl)-2-hydroxyacetamide] | ≤ 100 | ≤ 100 | > 10000 |
| COc1cc(C(F)(F)F)cc2c(SCC(=O)c3ccc(CNC(=O)CO)s3)nc(C)nc12 [Compound 148, 2-hydroxy-N-((5-(2-((8-methoxy-2-methyl-6-(trifluoromethyl)quinazolin-4-yl)thio)acetyl)thiophen-2-yl)methyl)acetamide] | ≤ 100 | ≤ 100 | > 10000 |
| O=C(CO)NCc1ccc(C(=O)CSc2nc(C(F)(F)F)nc3cccnc23)s1 [Compound 152, 2-hydroxy-N-((5-(2-((2-(trifluoromethyl)pyrido[3,2-d]pyrimidin-4-yl)thio)acetyl)thiophen-2-yl)methyl)acetamide] | ≤ 100 | ≤ 100 | > 10000 |
| O=C(CSc1nc(C(F)(F)F)nc2nn(C3CC3)cc12)c1ccc(CNC(=O)C2CC2(F)F)s1 (stereo not drawn) [Example 43, N-((5-(2-((2-cyclopropyl-6-(trifluoromethyl)-2H-pyrazolo[3,4-d]pyrimidin-4-yl)thio)acetyl)thiophen-2-yl)methyl)-2,2-difluorocyclopropane-1-carboxamide] | 100 to 500 | ≤ 100 | > 10000 |
